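Interpolation was linear, between the two tested concentrations surrounding the appropriate level; five concentrations were tested over 48 hours in 96-well plates. Here, GI50 denotes the concentration required for 50% inhibition of growth.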 The source made the active and inactive calls. Cut-off read from the data, not from the text of the source: active = GI50 up to about 1.1 µM and inactive = higher.

Among the test systems are RXF 393; M14; ACHN; MDA-MB-231; SN12C; UACC-257; A498; SK-MEL-5; MOLT-4; NCI-H522; SR; OVCAR-4; SF-268; UO-31; LOX IMVI; OVCAR-3; COLO 205; Malme-3M; IGROV-1.
Common to all, as to test: NCI tumour cell line growth inhibition, 48 h

Consider `Nc1c(C(=O)Nc2ccc([As](=O)(O)O)cc2)cnc2nnnn12`, for which the GI50 in the test with RXF 393, in the test on M14, in the test on ACHN, in the test on MDA-MB-231, in the test on SN12C and with UACC-257 was > 100 µM (inactive) throughout. For the same compound, the GI50 in the test on A498, in the test with SK-MEL-5, with MOLT-4, with NCI-H522, in the test with SR and in the test on OVCAR-4 was > 100 µM (inactive) each time. Further, the GI50 in the test with SF-268, in the test on UO-31, with LOX IMVI, in the test on OVCAR-3, in the test with COLO 205 and in the test with Malme-3M was > 100 µM (inactive) each time. In addition, the GI50 in the test on IGROV-1 is > 100 µM (inactive).

Turning to `Nc1nn2c(nc(N)c3c(N)n[nH]c32)c1/N=N\c1ccc(Br)cc1`, the GI50 in the test with RXF 393 is > 100 µM (inactive); in the test on M14, 5.86 µM (inactive); in the test on ACHN, 69.3 µM (inactive); in the test with MDA-MB-231 it was 0.524 µM (active); in the test with SN12C it was 7.76 µM (inactive); with UACC-257, 26.7 µM (inactive). Also, the GI50 with A498 was > 100 µM (inactive); in the test with SK-MEL-5, > 100 µM (inactive); in the test with MOLT-4 it was 3.53 µM (inactive); with NCI-H522 it was 27.5 µM (inactive); in the test on SR it was 2.72 µM (inactive); in the test with OVCAR-4, 16.4 µM (inactive). For the same compound, the GI50 in the test with SF-268 is 7.66 µM (inactive); in the test on UO-31, > 100 µM (inactive); in the test on LOX IMVI, 2.88 µM (inactive); in the test on OVCAR-3 it was 32.6 µM (inactive); in the test with COLO 205 it was > 63.2 µM (inactive); with Malme-3M, 4.42 µM (inactive). In addition, the GI50 in the test on IGROV-1 is 81.8 µM (inactive).

`COC(C)(C)CCc1[nH]c2ccccc2c1CC(=O)NCCc1cncn1C`: the GI50 in the test with RXF 393, in the test with M14, with ACHN, in the test on MDA-MB-231, with SN12C and with UACC-257 was > 100 µM (inactive) in each case. Moreover, the GI50 is 34.3 µM (inactive) in the test with A498; > 100 µM (inactive) with SK-MEL-5; > 100 µM (inactive) with MOLT-4; > 100 µM (inactive) in the test with NCI-H522; > 100 µM (inactive) in the test on SR; > 100 µM (inactive) with OVCAR-4. In addition, the GI50 in the test with SF-268, in the test on UO-31, with LOX IMVI, in the test on OVCAR-3, with COLO 205 and in the test on Malme-3M was > 100 µM (inactive) in each case. In the test on IGROV-1, the GI50 is > 100 µM (inactive).

With `CS(=O)(=O)OCCCCOS(=O)(=O)CF`, the GI50 in the test with RXF 393 is > 100 µM (inactive); with M14, > 100 µM (inactive); in the test on ACHN, 52.6 µM (inactive); with MDA-MB-231 it was > 100 µM (inactive); in the test on SN12C it was > 100 µM (inactive); in the test on UACC-257, > 100 µM (inactive). The GI50 was > 100 µM (inactive) with A498; > 100 µM (inactive) in the test on SK-MEL-5; 32.9 µM (inactive) in the test with MOLT-4; > 100 µM (inactive) in the test with NCI-H522; > 73.3 µM (inactive) with SR; > 100 µM (inactive) with OVCAR-4. The GI50 is > 100 µM (inactive) in the test on SF-268; > 100 µM (inactive) with UO-31; > 100 µM (inactive) in the test with LOX IMVI; > 100 µM (inactive) in the test on OVCAR-3; > 100 µM (inactive) with COLO 205; > 46.5 µM (inactive) with Malme-3M. Also, in the test with IGROV-1, the GI50 is > 91.4 µM (inactive).
